In patent US20240408093A1, “HETEROBIFUNCTIONAL COMPOUNDS AND THEIR USE IN TREATING DISEASE” (HALDA THERAPEUTICS OPCO, INC., priority 2022, published 2024):

Columns and labels:
GSPT1 = target: T1, GSPT1 (Homo sapiens, UniProt P15170+Q96SW2); assay: GSPT1 HiBiT degradation assay; assay type: cell-based; conditions: HEK293 LgBiT GSPT1 HiBiT cells, 6 hours
T1 construct: host or cells: HEK293 LgBiT / GSPT1 HiBiT CRISPR knock-in
Summary of the method: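 HEK293 CRISPR knock-in cells expressing LgBiT and GSPT1-HiBiT were seeded at 1000 cells/well and, after 18-24 h, treated with titrated compound plus endurazine (0.5× final) at 37 °C. Luminescence read after 6 h; loss of signal reflects GSPT1 degradation, giving DC50.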

KRAS G12C = KRAS G12C (Homo sapiens, UniProt P01116, G12C); assay: KRAS G12C cellular target engagement assay (SW1573 cells); assay type: cell-based; design: host or cells: SW1573; conditions: 17 hours, read-out: TE50 (the source's name)
Description: SW1573 cells (ATCC CRL-2170) were cultured in RPMI 1640 (Gibco A1049101), supplemented with 10% Heat-inactivated FBS (Gibco Cat. #A38400-01) and 1% Penicillin/Streptomycin (Gibco Cat. #15140-122) in an incubator set at 37° C. and 5% CO2. Cells were seeded at 100,000 cells/ml in 1 ml of complete media in a 24-well, tissue culture-treated plate (Falcon 353226) and incubated overnight. Cells were treated with increasing concentrations of compound and let incubate at 37C and 5% CO2 for 17 hours, after which media was aspirated and cells were lysed in 75 uL RIPA Lysis and Extraction Buffer (Thermo 89901) supplemented with 5 mM MgCl2, Protease and Phosphatase inhibitor cocktail (Thermo 1861281), and Universal Nuclease (Thermo 88700). Plates with RIPA were shaken at 4° C. at 600 rpm for 15 min. After shaking samples, they were collected and spun down at 21,000 g for 15 min at 4° C. Following centrifugation, ˜10 ug of lysate was added to Laemmli Sample Buffer (Bio-Rad 1610747) plus 10% beta-mercaptoethanol, boiled for 15 minutes at 65° C. and loaded onto 12% Mini-PROTEAN TGX™ Precast Protein Gels (Bio-Rad). Protein was transferred to a nitrocellulose membrane (Thermo LC2000) using the iBlot 2 Dry Blotting System (Thermo). After transfer, membranes were washed in 1× TBST (Bioland Scientific LLC TBST0103) 3× for 5 min. Following the wash, blocking buffer (Rockland MB-070) was added for 1 hour at room temperature. Primary antibodies against KRAS (LifeSpan Bio LS-C175665) and actin (Cell Signaling Technology 8457) were added overnight at 4° C. Membranes were then washed again 3× for 5 min in 1× TBST. Secondary antibodies (LI-COR 926-68072 and 926-68073) were added and shaken for 1 hr at room temperature. Membranes were then washed 3× for 5 min in 1×TBST and developed. Membranes were placed on an Odyssey imager (LI-COR).

KRAS G12C, sequence (P01116 1-188 isoform P01116-2 G12C): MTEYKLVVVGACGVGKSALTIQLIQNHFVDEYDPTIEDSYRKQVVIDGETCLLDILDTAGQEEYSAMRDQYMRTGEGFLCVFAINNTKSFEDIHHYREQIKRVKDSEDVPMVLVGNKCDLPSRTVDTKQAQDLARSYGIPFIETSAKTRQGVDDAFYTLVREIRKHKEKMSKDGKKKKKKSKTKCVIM
T1 sequence (P15170 whole entry): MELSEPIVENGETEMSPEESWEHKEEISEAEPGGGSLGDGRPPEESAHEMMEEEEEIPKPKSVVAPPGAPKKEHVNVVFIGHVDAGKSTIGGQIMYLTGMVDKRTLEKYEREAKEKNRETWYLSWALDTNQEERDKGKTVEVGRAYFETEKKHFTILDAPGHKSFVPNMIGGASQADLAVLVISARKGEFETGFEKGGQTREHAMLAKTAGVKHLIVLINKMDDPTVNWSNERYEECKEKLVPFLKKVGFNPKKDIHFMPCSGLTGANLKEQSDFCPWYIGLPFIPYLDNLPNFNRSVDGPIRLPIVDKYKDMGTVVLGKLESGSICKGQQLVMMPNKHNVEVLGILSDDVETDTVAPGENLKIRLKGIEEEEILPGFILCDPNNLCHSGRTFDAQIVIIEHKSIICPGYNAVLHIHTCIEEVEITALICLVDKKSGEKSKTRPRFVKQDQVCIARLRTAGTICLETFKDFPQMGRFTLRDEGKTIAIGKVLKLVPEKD
T1 sequence (Q96SW2 whole entry): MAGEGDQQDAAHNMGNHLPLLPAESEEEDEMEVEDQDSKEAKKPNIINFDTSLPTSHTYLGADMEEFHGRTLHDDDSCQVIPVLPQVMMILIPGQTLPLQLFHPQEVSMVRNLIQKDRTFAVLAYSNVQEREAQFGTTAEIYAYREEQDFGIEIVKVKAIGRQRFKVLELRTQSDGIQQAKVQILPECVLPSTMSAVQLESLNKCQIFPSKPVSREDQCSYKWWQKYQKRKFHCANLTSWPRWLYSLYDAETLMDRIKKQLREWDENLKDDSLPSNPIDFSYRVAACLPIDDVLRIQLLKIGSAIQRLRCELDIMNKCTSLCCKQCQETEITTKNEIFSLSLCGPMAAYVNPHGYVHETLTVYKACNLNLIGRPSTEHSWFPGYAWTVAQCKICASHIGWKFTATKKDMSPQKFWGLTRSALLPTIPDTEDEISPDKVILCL
T1 sequence (Q16531 whole entry partner): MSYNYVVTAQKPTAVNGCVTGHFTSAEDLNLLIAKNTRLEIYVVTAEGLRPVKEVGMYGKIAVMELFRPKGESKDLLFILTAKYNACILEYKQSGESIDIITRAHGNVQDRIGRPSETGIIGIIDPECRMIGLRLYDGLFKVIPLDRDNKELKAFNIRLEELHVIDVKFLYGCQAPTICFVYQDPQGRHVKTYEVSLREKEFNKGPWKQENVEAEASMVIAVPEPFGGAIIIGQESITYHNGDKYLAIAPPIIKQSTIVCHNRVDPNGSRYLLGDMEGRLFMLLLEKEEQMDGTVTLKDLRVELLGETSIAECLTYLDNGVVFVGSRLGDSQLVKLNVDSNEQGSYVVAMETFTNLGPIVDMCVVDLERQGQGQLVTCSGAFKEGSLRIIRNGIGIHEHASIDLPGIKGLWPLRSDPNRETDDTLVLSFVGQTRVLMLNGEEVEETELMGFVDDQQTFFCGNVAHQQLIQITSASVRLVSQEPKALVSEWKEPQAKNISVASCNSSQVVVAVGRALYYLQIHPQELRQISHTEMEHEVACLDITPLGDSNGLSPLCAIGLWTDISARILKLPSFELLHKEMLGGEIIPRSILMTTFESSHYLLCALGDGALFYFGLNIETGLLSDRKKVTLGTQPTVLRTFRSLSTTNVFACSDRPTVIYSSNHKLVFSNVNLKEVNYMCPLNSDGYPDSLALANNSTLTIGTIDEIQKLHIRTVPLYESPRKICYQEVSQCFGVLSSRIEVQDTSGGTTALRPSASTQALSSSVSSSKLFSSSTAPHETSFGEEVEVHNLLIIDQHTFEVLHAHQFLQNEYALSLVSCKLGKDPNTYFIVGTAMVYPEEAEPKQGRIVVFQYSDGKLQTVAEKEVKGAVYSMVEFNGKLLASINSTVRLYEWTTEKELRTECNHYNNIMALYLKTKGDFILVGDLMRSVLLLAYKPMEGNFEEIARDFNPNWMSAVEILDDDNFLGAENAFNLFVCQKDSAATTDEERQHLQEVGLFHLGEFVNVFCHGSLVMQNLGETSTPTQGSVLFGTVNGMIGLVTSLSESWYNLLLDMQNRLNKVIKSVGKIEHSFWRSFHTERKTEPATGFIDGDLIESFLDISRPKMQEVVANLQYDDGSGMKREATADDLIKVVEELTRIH

Row | SMILES | DC50 (GSPT1) [µM] | EC50 (KRAS G12C) [µM]
1 | C=C(COc1c(Cl)cccc1NC(=O)NCc1ccc2c(c1)CN(C1CCC(=O)NC1=O)C2=O)C(=O)N[C@@H]1CN(c2nc(Nc3cn(C)nc3OC)c3ncn(C)c3n2)C[C@H]1F (stereo partly drawn) [Compound I-69] | 0.05 to 0.5 | –
2 | C=C(COc1cc(Cl)c(OC)cc1NC(=O)NCc1ccc2c(c1)CN(C1CCC(=O)NC1=O)C2=O)C(=O)N1CC2(CC(n3nc(-c4ccc5c(cnn5C)c4)c(-c4c(Cl)c(C)cc5[nH]ncc45)c3C)C2)C1 (stereo not drawn) [Compound I-66] | 0.05 to 0.5 | 0.25 to 5
3 | C=C(COc1cc(-c2ccccn2)ccc1CNc1nc(N[C@H](CC)CO)nc2c1ncn2C(C)C)C(=O)N1CCN(c2nc(OC[C@@H]3CCCN3C)nc3c2CCN(c2cccc4cccc(Cl)c24)C3)C[C@@H]1CC#N [II-186] | – | 0.25 to 5
4 | C=C(COc1cc(Cl)c(OC)cc1NC(=O)NCc1ccc2c(c1)CN(C1CCC(=O)NC1=O)C2=O)C(=O)N1CCN(c2nc(OC[C@@H]3CCCN3C)nc3c2CCN(c2cccc4cccc(Cl)c24)C3)C[C@@H]1CC#N (stereo partly drawn) [Compound I-46] | 0.5 to 2.5 | 0.25 to 5
5 | C=C(COc1cc(NC(=O)NCc2ccc3c(c2F)CN(C2CCC(=O)NC2=O)C3=O)cc(C(F)(F)F)c1)C(=O)N1CCN(c2nc(OC[C@@H]3CCCN3C)nc3c2CCN(c2cccc4cccc(Cl)c24)C3)C[C@@H]1CC#N (stereo partly drawn) [Compound I-85] | 0.05 to 0.5 | < 0.25
6 | C=C(CN1CCN(c2nc(NCc3nc4cc(C)ccc4[nH]3)n3ncc(Br)c3n2)CC1)C(=O)N1CCN(c2nc(OC[C@@H]3CCCN3C)nc3c2CCN(c2cccc4cccc(Cl)c24)C3)C[C@@H]1CC#N [II-190] | – | 0.25 to 5
7 | C=C(COc1cc(NC(=O)NCc2ccc3c(c2)CN(C2CCC(=O)NC2=O)C3=O)cc(C(F)(F)F)c1)C(=O)N1CCN(c2nc(OC[C@@H]3CCCN3C)nc3c2CCN(c2cccc4cccc(Cl)c24)C3)C[C@@H]1CC#N (stereo partly drawn) [Compound I-48] | 0.5 to 2.5 | 0.25 to 5
8 | C=C(COc1cc(NC(=O)NCc2ccc3c(c2F)CN(C2CCC(=O)NC2=O)C3=O)cc(C(F)(F)F)c1)C(=O)N1CC2(CC(n3nc(-c4ccc5c(cnn5C)c4)c(-c4c(Cl)c(C)cc5[nH]ncc45)c3C)C2)C1 (stereo not drawn) [Compound I-68] | > 2.5 | 0.25 to 5
9 | C=C(COc1cc(F)c(F)cc1NC(=O)NCc1ccc2c(c1)CN(C1CCC(=O)NC1=O)C2=O)C(=O)N1CCN(c2nc(OC[C@@H]3CCCN3C)nc3c2CCN(c2cccc4cccc(Cl)c24)C3)C[C@@H]1CC#N (stereo partly drawn) [Compound I-62] | 0.5 to 2.5 | 0.25 to 5
10 | C=C(COc1ccccc1NC(=O)NCc1ccc2c(c1)CN(C1CCC(=O)NC1=O)C2=O)C(=O)N1CCN(c2nc(OC[C@H]3CCCN3C)nc3c2CCN(c2cccc4cccc(Cl)c24)C3)C[C@H]1CC#N (stereo partly drawn) [Compound I-80] | > 2.5 | < 0.25
11 | C=C(COc1cc(NC(=O)NCc2ccc3c(c2)CN(C2CCC(=O)NC2=O)C3=O)cc(OC)c1)C(=O)N1CC2(CC(n3nc(-c4ccc5c(cnn5C)c4)c(-c4c(Cl)c(C)cc5[nH]ncc45)c3C)C2)C1 (stereo not drawn) [Compound I-67] | 0.5 to 2.5 | 5 to 10
12 | C=C(COC(=O)c1c(C)csc1NC(=O)NCc1ccc2c(c1)CN(C1CCC(=O)NC1=O)C2=O)C(=O)N1CCN(c2nc(OC[C@@H]3CCCN3C)nc3c2CCN(c2cccc4cccc(Cl)c24)C3)C[C@@H]1CC#N (stereo partly drawn) [Compound I-72, 2-[(2S)-4-[7-(8-chloro-1-naphthyl)-2-[[(2S)-1-methylpyrrolidin-2-yl]methoxy]-6,8-dihydro-5H-pyrido[3,4-d]pyrimidin-4-yl]-2-(cyanomethyl)piperazine-1-carbonyl]allyl 2-[[2-(2,6-dioxo-3-piperidyl)-1-oxo-isoindolin-5-yl]methylcarbamoylamino]-4-methyl-thiophene-3-carboxylate] | > 2.5 | 5 to 10
13 | C=C(COc1cc(Cl)cc(NC(=O)NCc2ccc3c(c2)CN(C2CCC(=O)NC2=O)C3=O)c1)C(=O)N1CC2(CC(n3nc(-c4ccc5c(cnn5C)c4)c(-c4c(Cl)c(C)cc5[nH]ncc45)c3C)C2)C1 (stereo not drawn) [Compound I-56] | > 2.5 | 5 to 10
14 | C=C(COc1cc(NC(=O)NCc2ccc3c(c2)CN(C2CCC(=O)NC2=O)C3=O)cc(C(F)(F)F)c1)C(=O)N1CC2(CC(n3nc(-c4ccc5c(cnn5C)c4)c(-c4c(Cl)c(C)cc5[nH]ncc45)c3C)C2)C1 (stereo not drawn) [Compound I-77] | 0.05 to 0.5 | 0.25 to 5
15 | C=C(COc1cc(Cl)cc(NC(=O)NCc2cc3c(cc2F)C(=O)N(C2CCC(=O)NC2=O)C3)c1)C(=O)N1CCN(c2nc(OC[C@@H]3CCCN3C)nc3c2CCN(c2cccc4cccc(Cl)c24)C3)C[C@@H]1CC#N (stereo partly drawn) [Compound I-64] | 0.5 to 2.5 | 0.25 to 5
16 | C=C(COc1cc(C(F)(F)F)c(Cl)cc1NC(=O)NCc1ccc2c(c1)CN(C1CCC(=O)NC1=O)C2=O)C(=O)N1CCN(c2nc(OC[C@@H]3CCCN3C)nc3c2CCN(c2cccc4cccc(Cl)c24)C3)C[C@@H]1CC#N (stereo partly drawn) [Compound I-88] | < 0.05 | < 0.25
17 | C=C(COc1cc(NC(=O)NCc2ccc3c(c2)CN(C2CCC(=O)NC2=O)C3=O)cc(F)c1F)C(=O)N1CCN(c2nc(OC[C@@H]3CCCN3C)nc3c2CCN(c2cccc4cccc(Cl)c24)C3)C[C@@H]1CC#N (stereo partly drawn) [Compound I-75] | > 2.5 | 5 to 10
18 | C=C(CN(C)c1cccc(NC(=O)NCc2ccc3c(c2)CN(C2CCC(=O)NC2=O)C3=O)c1)C(=O)N1CCN(c2nc(OC[C@@H]3CCCN3C)nc3c2CCN(c2cccc4cccc(Cl)c24)C3)C[C@@H]1CC#N (stereo partly drawn) [Compound I-58] | > 2.5 | 5 to 10
19 | C=C(COC(=O)NCCCc1cc(Cl)cc(NC(=O)NCc2ccc3c(c2)CN(C2CCC(=O)NC2=O)C3=O)c1)C(=O)N1CCN(c2nc(OC[C@@H]3CCCN3C)nc3c2CCN(c2cccc4cccc(Cl)c24)C3)C[C@@H]1CC#N (stereo partly drawn) [Compound I-74] | 0.5 to 2.5 | < 0.25
20 | C=C(COC(=O)NCCc1ccc(Cl)cc1NC(=O)NCc1ccc2c(c1)CN(C1CCC(=O)NC1=O)C2=O)C(=O)N1CCN(c2nc(OC[C@@H]3CCCN3C)nc3c2CCN(c2cccc4cccc(Cl)c24)C3)C[C@@H]1CC#N (stereo partly drawn) [Compound I-78] | 0.5 to 2.5 | < 0.25
21 | C=C(COc1ccc(CN2C(=O)CCC(N3Cc4cc(CNC(=O)Nc5ccc(C)c(Cl)c5)ccc4C3=O)C2=O)cc1)C(=O)N1CCN(c2nc(OC[C@H]3CCCN3C)nc3c2CCN(c2cccc4cccc(Cl)c24)C3)C[C@@H]1CC#N (stereo in doubt) [Compound I-44] | > 2.5 | 0.25 to 5
22 | C=C(COc1ccccc1CNC(=O)NCc1ccc2c(c1)CN(C1CCC(=O)NC1=O)C2=O)C(=O)N1CCN(c2nc(OC[C@@H]3CCCN3C)nc3c2CCN(c2cccc4cccc(Cl)c24)C3)C[C@@H]1CC#N (stereo partly drawn) [Compound I-63] | > 2.5 | 0.25 to 5
23 | C=C(COc1cc(Cl)cc(NC(=O)NCc2ccc3c(c2)CN(C2CCC(=O)NC2=O)C3=O)c1F)C(=O)N1CCN(c2nc(OC[C@@H]3CCCN3C)nc3c2CCN(c2cccc4cccc(Cl)c24)C3)C[C@@H]1CC#N (stereo partly drawn) [Compound I-84] | 0.05 to 0.5 | > 10
24 | C=C(CN(C(=O)NCc1ccc2c(c1)CN(C1CCC(=O)NC1=O)C2=O)c1ccc(C)c(Cl)c1)C(=O)N1C[C@@H](COc2nc(Nc3cnn(C)c3)nc3[nH]cc(Cl)c23)[C@H](OC)C1 (stereo partly drawn) [Compound I-71] | 0.5 to 2.5 | –
25 | C=C(CN(C(=O)NCc1ccc2c(c1)CN(C1CCC(=O)NC1=O)C2=O)c1ccc(C)c(Cl)c1)C(=O)Nc1cccc(Oc2nc(Nc3ccc(N4CCN(C)CC4)cc3)nc3ccsc23)c1 (stereo not drawn) [Compound I-70] | > 2.5 | –
